Earlier results, collected in patent publication US20110028639A1, “ROOM TEMPERATURE VULCANIZABLE POLYMERS” (HONEYWELL INTERNATIONAL, INC., priority 2007, published 2011).

Test system: males rats

CC(C)=NO [acetone oxime]
tumors in rats: cause tumors
